Activity calls are given as the source filed them. The rule behind the calls is not given here.
Assays:
SK-BR-3 [1] = test: Induction of apoptosis in human SK-BR-3 cells assessed as live cells at 1 uM incubated for 24 hrs by Annexin V-FITC/PI staining based flow cytometry analysis (reference value: 94.6%); type: functional
SK-BR-3 [2] = test: Induction of apoptosis in human SK-BR-3 cells assessed as early apoptotic cells at 1 uM incubated for 24 hrs by Annexin V-FITC/PI staining based flow cytometry analysis (reference value: 2.80%); type: functional
SK-BR-3 [3] = test: Induction of apoptosis in human SK-BR-3 cells assessed as late apoptotic cells at 1 uM incubated for 24 hrs by Annexin V-FITC/PI staining based flow cytometry analysis (reference value: 1.11%); type: functional
SK-BR-3 [4] = test: Induction of apoptosis in human SK-BR-3 cells assessed as necrotic cells at 1 uM incubated for 24 hrs by Annexin V-FITC/PI staining based flow cytometry analysis (reference value: 1.49%); type: functional
SK-BR-3 [5] = test: Induction of apoptosis in human SK-BR-3 cells assessed as live cells at 1 uM incubated for 24 hrs in presence of SMAC peptide by Annexin V-FITC/PI staining based flow cytometry analysis (reference value: 94.6%); type: functional
SK-BR-3 [6] = test: Induction of apoptosis in human SK-BR-3 cells assessed as early apoptotic cells at 1 uM incubated for 24 hrs in presence of SMAC peptide by Annexin V-FITC/PI staining based flow cytometry analysis (reference value: 2.80%); type: functional
SK-BR-3 [7] = test: Induction of apoptosis in human SK-BR-3 cells assessed as late apoptotic cells at 1 uM incubated for 24 hrs in presence of SMAC peptide by Annexin V-FITC/PI staining based flow cytometry analysis (reference value: 1.11%); type: functional
SK-BR-3 [8] = test: Induction of apoptosis in human SK-BR-3 cells assessed as necrotic cells at 1 uM incubated for 24 hrs in presence of SMAC peptide by Annexin V-FITC/PI staining based flow cytometry analysis (reference value: 1.49%); type: functional
SK-BR-3 [9] = test: Induction of apoptosis in human SK-BR-3 cells assessed as downregulation of XIAP protein expression incubated for 24 hrs by Western blot analysis; type: functional, cell-based
SK-BR-3 [10] = test: Induction of apoptosis in human SK-BR-3 cells assessed as downregulation of XIAP protein expression incubated for 24 hrs in presence of SMAC peptide by Western blot analysis; type: functional, cell-based
SK-BR-3 [11] = test: Induction of apoptosis in human SK-BR-3 cells assessed as downregulation of cIAP1 protein expression incubated for 24 hrs by Western blot analysis; type: functional, cell-based
SK-BR-3 [12] = test: Induction of apoptosis in human SK-BR-3 cells assessed as downregulation of cIAP1 protein expression incubated for 24 hrs in presence of SMAC peptide by Western blot analysis; type: functional, cell-based
SK-BR-3 [13] = test: Antitumor activity against human SK-BR-3 cells xenografted in nude mouse assessed as inhibition of tumor growth at 8 umol/kg, iv administered every 3 days for 14 days and measured every 2 days by vernier caliper analysis; type: functional, organism-based; settings: dose 8.0 µmol/kg, time 14.0 day
SK-BR-3 [14] = test: Antitumor activity against human SK-BR-3 cells xenografted in nude mouse assessed as inhibition of tumor growth at 8 umol/kg, iv administered every 3 days for 14 days with SMAC peptide and measured every 2 days by vernier caliper analysis; type: functional, organism-based; settings: dose 8.0 µmol/kg, time 14.0 day
[15] = Toxicity in nude mouse xenografted with human SK-BR-3 cells assessed as increase in ALT level at 8 umol/kg, iv administered every 3 days for 14 days; type: organism-based; settings: in vivo, 336 h, dose 8 µmol/kg, time 14 day
[16] = Toxicity in nude mouse xenografted with human SK-BR-3 cells assessed as increase in ALT level at 8 umol/kg, iv administered every 3 days for 14 days in presence of SMAC peptide; type: organism-based; settings: in vivo, 336 h, dose 8 µmol/kg, time 14 day
[17] = Toxicity in nude mouse xenografted with human SK-BR-3 cells assessed as increase in AST level at 8 umol/kg, iv administered every 3 days for 14 days; type: organism-based; settings: in vivo, 336 h, dose 8 µmol/kg, time 14 day
[18] = Toxicity in nude mouse xenografted with human SK-BR-3 cells assessed as increase in AST level at 8 umol/kg, iv administered every 3 days for 14 days in presence of SMAC peptide; type: organism-based; settings: in vivo, 336 h, dose 8 µmol/kg, time 14 day
[19] = Toxicity in nude mouse xenografted with human SK-BR-3 cells assessed as increase in blood urea nitrogen level at 8 umol/kg, iv administered every 3 days for 14 days in presence of SMAC peptide; type: organism-based; settings: in vivo, 336 h, dose 8 µmol/kg, time 14 day
[20] = Toxicity in nude mouse xenografted with human SK-BR-3 cells assessed as increase in creatinine level at 8 umol/kg, iv administered every 3 days for 14 days in presence of SMAC peptide; type: organism-based; settings: in vivo, 336 h, dose 8 µmol/kg, time 14 day
[21] = Toxicity in nude mouse xenografted with human SK-BR-3 cells assessed as change in alkaline phosphatase level at 8 umol/kg, iv administered every 3 days for 14 days; type: organism-based; settings: in vivo, 336 h, dose 8 µmol/kg, time 14 day
[22] = Toxicity in nude mouse xenografted with human SK-BR-3 cells assessed as change in alkaline phosphatase level at 8 umol/kg, iv administered every 3 days for 14 days in presence of SMAC peptide; type: organism-based; settings: in vivo, 336 h, dose 8 µmol/kg, time 14 day
[23] = Toxicity in nude mouse xenografted with human SK-BR-3 cells assessed as change in total protein level at 8 umol/kg, iv administered every 3 days for 14 days; type: organism-based; settings: in vivo, 336 h, dose 8 µmol/kg, time 14 day
[24] = Toxicity in nude mouse xenografted with human SK-BR-3 cells assessed as change in total protein level at 8 umol/kg, iv administered every 3 days for 14 days in presence of SMAC peptide; type: organism-based; settings: in vivo, 336 h, dose 8 µmol/kg, time 14 day
[25] = Toxicity in nude mouse xenografted with human SK-BR-3 cells assessed as change in albumin level at 8 umol/kg, iv administered every 3 days for 14 days; type: organism-based; settings: in vivo, 336 h, dose 8 µmol/kg, time 14 day
[26] = Toxicity in nude mouse xenografted with human SK-BR-3 cells assessed as change in albumin level at 8 umol/kg, iv administered every 3 days for 14 days in presence of SMAC peptide; type: organism-based; settings: in vivo, 336 h, dose 8 µmol/kg, time 14 day
[27] = Toxicity in nude mouse xenografted with human SK-BR-3 cells assessed as change in globulin level at 8 umol/kg, iv administered every 3 days for 14 days; type: organism-based; settings: in vivo, 336 h, dose 8 µmol/kg, time 14 day
[28] = Toxicity in nude mouse xenografted with human SK-BR-3 cells assessed as change in globulin level at 8 umol/kg, iv administered every 3 days for 14 days in presence of SMAC peptide; type: organism-based; settings: in vivo, 336 h, dose 8 µmol/kg, time 14 day

SMILES: CCC1(OC(=O)OCCSSC[C@@H](N)C(=O)N[C@@H](CC(N)=O)C(=O)N2CCC[C@H]2C(=O)N[C@@H](CC(N)=O)C(=O)N[C@@H](Cc2c[nH]c3ccccc23)C(=O)NCC(=O)N[C@@H](CCCNC(=N)N)C(=O)N[C@@H](CO)C(=O)N[C@@H](Cc2c[nH]c3ccccc23)C(=O)N[C@@H](Cc2ccc(O)cc2)C(=O)N[C@@H](CC(N)=O)C(=O)N[C@@H](CCC(N)=O)C(=O)N[C@@H](CCCNC(=N)N)C(=O)N[C@@H](Cc2ccccc2)C(=O)N[C@@H](CCCCN)C(=O)N[C@@H](CCCCN)C(N)=O)C(=O)OCc2c1cc1n(c2=O)Cc2cc3ccccc3nc2-1 (stereo partly drawn)
- Activity (SK-BR-3 [1]): 78.8%
- Activity (SK-BR-3 [2]): 15.1%
- Activity (SK-BR-3 [3]): 4.89%
- Activity (SK-BR-3 [4]): 1.23%
- Activity (SK-BR-3 [5]): 74.9%
- Activity (SK-BR-3 [6]): 16.8%
- Activity (SK-BR-3 [7]): 6.9%
- Activity (SK-BR-3 [8]): 1.34%
- Activity (SK-BR-3 [9]): Active
- Activity (SK-BR-3 [10]): Active
- Activity (SK-BR-3 [11]): inactive
- Activity (SK-BR-3 [12]): inactive
- Activity (SK-BR-3 [13]): Active
- Activity (SK-BR-3 [14]): Active
- Activity [15]: Toxic
- Activity [16]: Toxic
- Activity [17]: Toxic
- Activity [18]: Toxic
- Activity [19]: Toxic
- Activity [20]: Toxic
- Activity [21]: Non-Toxic
- Activity [22]: Non-Toxic
- Activity [23]: Non-Toxic
- Activity [24]: Non-Toxic
- Activity [25]: Non-Toxic
- Activity [26]: Non-Toxic
- Activity [27]: Non-Toxic
- Activity [28]: Non-Toxic

Source: ChEMBL document CHEMBL5537151, “Design, synthesis and bioactivity evaluation of novel fusion peptides and their CPT conjugates inducing effective anti-tumor responses on HER2 positive tumors” (Eur J Med Chem, 2024)
